Test results reported in patent publication US9687480B2, “Chiral 1-(4-methylphenylmethyl)-5-oxo-{N-[(3-t-butoxycarbonyl-aminomethyl)]-piperidin-1-yl)-pyrrolidine as inhibitors of collagen induced platelet activation and adhesion” (Council of Scientific & Industrial Research, priority 2011, dated 2017).
Like-named read-outs stand apart in the source and are kept apart here.

Legend:
Type in all cases: cell-based
[1] = system: human platelet rich plasma (collagen induced aggregation); assay: Collagen induced platelet aggregation, human platelet rich plasma (in vitro); conditions: for IC50: human PRP, collagen 2 μg/ml, read-out: Collagen induced platelet aggregation studies (Human) IC50; for activity against collagen induced aggregation: in vitro, human platelet rich plasma
Protocol: (§1) The reaction was allowed to proceed for at least 5 min, and the extent of aggregation was expressed in light-transmission units (Ivandic B T, Schlick P, Starltz P, Kurz K, Katas H A, Giannitsis E. Determination of clopidogrel resistance by whole blood platelet aggregometry and inhibitors of the P2Y12 receptor. Clinical Chemistry 2006: 52:383-88).
(§2) The percentage of aggregation was calculated by using following formula: Percent Aggregation=A/B×100 Where, A is the number of division traversed by the label on chart in the presence of Inducer & B is the total number of divisions (80). Platelet Aggregation Studies (FIG. 3) a) Platelet Aggregation (Human, In Vitro) (FIG. 3a (i) (ii) (iii))

[2] = system: human platelet rich plasma (TRAP induced aggregation); assay: TRAP (SFLLRN) induced platelet aggregation, human platelet rich plasma (in vitro); conditions: for IC50: human PRP, 25 μM TRAP, read-out: TRAP induced platelet aggregation studies (Human) IC50; for effect on TRAP induced platelet aggregation: up to 300 μM
Protocol: as §1, §2

GPVI = target: T1, GPVI (Homo sapiens, UniProt Q9HCN6); assay: GPVI-mediated platelet adhesion assay on fibrillar collagen (human, in vitro); conditions: for Platelet adhesion: Table 2 summary, collagen type not stated, effective concentration in brackets: mixture 100 μM, compound 6 30 & 100 μM, compound 7 100 μM; for human platelet adhesion on fibrillar collagen (GP VI mediated): in vitro, washed platelets, divalent cation-free
T1 construct: Washed platelets, suspended in the Tyrode's-HEPES buffer; endogenous in cells; host or cells: washed human platelets from healthy volunteers
T1 sequence (Q9HCN6 21-339): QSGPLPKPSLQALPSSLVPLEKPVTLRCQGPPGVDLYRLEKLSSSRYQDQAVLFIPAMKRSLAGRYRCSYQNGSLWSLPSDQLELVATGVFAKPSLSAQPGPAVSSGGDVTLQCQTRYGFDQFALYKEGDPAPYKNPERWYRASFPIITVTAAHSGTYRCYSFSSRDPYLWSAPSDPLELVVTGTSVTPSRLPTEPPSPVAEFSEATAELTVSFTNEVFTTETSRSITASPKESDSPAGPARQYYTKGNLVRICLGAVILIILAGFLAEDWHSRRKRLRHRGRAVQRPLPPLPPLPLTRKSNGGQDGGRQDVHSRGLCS
T1 sequence (P30273 19-86 partner): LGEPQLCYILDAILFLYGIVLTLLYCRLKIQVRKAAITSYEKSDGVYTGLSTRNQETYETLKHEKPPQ
Protocol: (§3) Fresh blood was drawn by venipuncture from consenting healthy human volunteers in citrate-phosphate-dextrose. Platelet-rich plasma (PRP) was obtained by centrifugation at 180 g for 20 minutes at room temperature (Beckman TJ6. USA). […] Platelets were then washed twice with Buffer (20 mMHEPES, 138 mM NaCl, 2.9 mMKCl, 1 mMMgCl2, 0.36 mMNaH2PO4, 1 mM EGTA, 4.77 mM trisodium citrate, and 2.35 mM citric acid, 5 mM glucose and Apyrase 1 U/ml, pH 6.5) containing 0.1% bovine serum albumin (BSA) and finally resuspended in the HEPES-buffered Tyrode solution (pH 7.4), to give a concentration of 2×10^8 cells/mL (Jandrot-Perrus M. Lagrue A H, Okuma M, and Boni C Adhesion and Activation of Human Platelets Induced by Convulxin Involve Glycoprotein VI and Integrin α2β1 J. Biol. Chem. 1997; 272: 27035-27041).
Integrin α2β1 binding on soluble collagen depends on the presence of Mg2+/Ca^2+ (Onley D. J., Knight C. G., Tuckwell D. S., Barnes M. J., and Farndale R. W. Micromolar Ca2+ concentrations are essential for Mg2+-dependent binding of collagen by the integrin α2β1 in human platelets. J. Biol. Chem, 2000; 275: 24560-24564.) while GPVI mediates adhesion over fibrillar collagen in absence of divalent ions (Nieswandt B., Brakebusch C, Bergmeier W, Schulte V, Bouvard D, Nejad R M, Lindhout T, Heemskerk J W M, Zirngibl H and Fassler R. Glycoprotein VI but not α2b1 integrin is essential for platelet interaction with collagen. The EMBO Journal, 2001; 20:2120-2130) and therefore the adhesion assays were performed in the presence or absence of these divalent cations. Ninety-six well micro titer plates were coated with insoluble equine tendon fibrillar type I collagen or soluble rat tail type I (non-fibrillar) collagen, maintained in acetate buffer (pH 4.5), (Nakamura T., Jamieson G. A., Okuma M., Kambayashi J., and Tendon N. N. Platelet Adhesion to Native Type I Collagen Fibrils: role of gpVI in divalent cation-dependent and -independent adhesion and thromboxane A2 generation. J. Biol. Chem 1998; 273: 4338-[…], Tendon N N, Ockenhouse C F, Greco N J, Jamieson G A. Adhesive functions of platelet lacking GPIV (CD36). Blood 1991: 78: 2809-13). The unoccupied protein binding sites on the wells were blocked with 5 mg/ml BSA at room temperature for 1 hour, and then rinsed once in PBS. Washed platelets, suspended in the Tyrode's-HEPES buffer (136.7 mM NaCl, 13.8 mM NaHCO3, 0.36 mM NaH2PO4.H2O, 2.6 mM KCl, 1.0 mM MgCl2.6H2O, 5.5 mM glucose, 0.5% BSA, pH 7.4) at 1×10^8 cells/mL were pre-incubated with compounds for 30 min at 37° C. and added to the wells (10^7/well) for 1 h at room temperature. Divalent cation-free adhesion buffer was made by replacing Mg^2+ (1 mM) in the Tyrode-HEPES buffer with 50 μM EDTA (Yoshida S., Sudo T., Niimi M., Tao L., Sun B., Kambayashi J., Watanabe H., Luo E., and Matsuoka H. Inhibition of collagen-induced platelet aggregation by anopheline antiplatelet protein, a saliva protein from a malaria vector mosquito. Blood 2007; 111: 2007-201). After three washes in Tyrode's buffer, the number of adherent platelets was evaluated colorimetrically (as described by Bellavite P., Andrioli G., Gizzo P., Arigliano P., Chirumbolo S., Manzato F, Santonastaso C. A colorimetric method for the measurement of platelet adhesion in microtifer plates. Anal. Biochem. 1994; 216:444-450. Briefly, 150 μl of a 0.1 M citrate buffer (pH 5.4), containing 5 mM p-nitrophenyl phosphate and 0.1% TritonX-100 was added to the wells after washing. After incubation for 60 min at 25° C. in the absence of ambient light, colour was developed by the addition of 100 μl of 2N NaOH and the absorbance at 405 nm was read using a microplate reader (Powerware XS, Biotek, USA).

[3] = system: human platelet rich plasma (ADP induced aggregation); assay: ADP induced platelet aggregation, human platelet rich plasma (in vitro)
Protocol: as §1, §2

Integrin α2β1 = target: T2, Integrin α2β1 (Homo sapiens, UniProt P05556+P17301); assay: α2β1-mediated platelet adhesion assay on soluble collagen (human, in vitro); conditions: washed platelets, with Mg2+
T2 construct: Washed platelets, suspended in the Tyrode's-HEPES buffer; endogenous in cells; host or cells: washed human platelets from healthy volunteers
Protocol: as §3
Integrin α2β1 binding on soluble collagen depends on the presence of Mg2+/Ca^2+ (Onley D. J., Knight C. G., Tuckwell D. S., Barnes M. J., and Farndale R. W. Micromolar Ca2+ concentrations are essential for Mg2+-dependent binding of collagen by the integrin α2β1 in human platelets. J. Biol. Chem, 2000; 275: 24560-24564.) while GPVI mediates adhesion over fibrillar collagen in absence of divalent ions (Nieswandt B., Brakebusch C, Bergmeier W, Schulte V, Bouvard D, Nejad R M, Lindhout T, Heemskerk J W M, Zirngibl H and Fassler R. Glycoprotein VI but not α2b1 integrin is essential for platelet interaction with collagen. The EMBO Journal, 2001; 20:2120-2130) and therefore the adhesion assays were performed in the presence or absence of these divalent cations. […]

T2 sequence (P17301 30-1181): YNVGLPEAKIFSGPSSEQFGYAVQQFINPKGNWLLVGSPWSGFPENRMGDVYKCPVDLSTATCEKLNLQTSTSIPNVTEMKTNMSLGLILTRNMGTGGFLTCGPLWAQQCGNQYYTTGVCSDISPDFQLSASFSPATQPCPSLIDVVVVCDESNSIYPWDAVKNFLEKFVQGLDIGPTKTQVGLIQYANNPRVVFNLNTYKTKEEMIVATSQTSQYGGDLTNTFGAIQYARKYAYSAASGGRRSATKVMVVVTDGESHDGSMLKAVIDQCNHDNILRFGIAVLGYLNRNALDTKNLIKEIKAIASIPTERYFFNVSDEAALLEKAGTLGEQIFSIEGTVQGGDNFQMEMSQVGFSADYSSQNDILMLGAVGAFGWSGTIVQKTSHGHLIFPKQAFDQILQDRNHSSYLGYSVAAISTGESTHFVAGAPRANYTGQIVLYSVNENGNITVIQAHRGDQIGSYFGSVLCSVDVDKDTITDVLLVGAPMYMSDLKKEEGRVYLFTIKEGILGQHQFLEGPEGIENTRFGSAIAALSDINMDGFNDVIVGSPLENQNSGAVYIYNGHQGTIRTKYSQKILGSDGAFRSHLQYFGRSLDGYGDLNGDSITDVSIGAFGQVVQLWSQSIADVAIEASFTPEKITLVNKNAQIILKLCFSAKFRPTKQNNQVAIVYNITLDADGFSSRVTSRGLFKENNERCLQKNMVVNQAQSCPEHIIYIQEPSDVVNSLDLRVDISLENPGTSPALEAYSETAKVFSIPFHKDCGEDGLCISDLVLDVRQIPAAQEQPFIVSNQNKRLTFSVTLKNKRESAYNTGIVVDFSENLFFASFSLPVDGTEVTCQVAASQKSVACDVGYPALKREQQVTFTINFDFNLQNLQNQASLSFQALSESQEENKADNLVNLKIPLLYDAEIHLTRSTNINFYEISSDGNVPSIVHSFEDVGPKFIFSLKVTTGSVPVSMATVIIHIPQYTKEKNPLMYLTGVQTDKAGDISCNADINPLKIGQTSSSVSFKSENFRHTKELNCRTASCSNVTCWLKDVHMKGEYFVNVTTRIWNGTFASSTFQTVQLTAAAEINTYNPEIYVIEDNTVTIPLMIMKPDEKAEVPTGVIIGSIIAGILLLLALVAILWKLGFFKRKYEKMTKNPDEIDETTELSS
T2 sequence (P05556 21-798): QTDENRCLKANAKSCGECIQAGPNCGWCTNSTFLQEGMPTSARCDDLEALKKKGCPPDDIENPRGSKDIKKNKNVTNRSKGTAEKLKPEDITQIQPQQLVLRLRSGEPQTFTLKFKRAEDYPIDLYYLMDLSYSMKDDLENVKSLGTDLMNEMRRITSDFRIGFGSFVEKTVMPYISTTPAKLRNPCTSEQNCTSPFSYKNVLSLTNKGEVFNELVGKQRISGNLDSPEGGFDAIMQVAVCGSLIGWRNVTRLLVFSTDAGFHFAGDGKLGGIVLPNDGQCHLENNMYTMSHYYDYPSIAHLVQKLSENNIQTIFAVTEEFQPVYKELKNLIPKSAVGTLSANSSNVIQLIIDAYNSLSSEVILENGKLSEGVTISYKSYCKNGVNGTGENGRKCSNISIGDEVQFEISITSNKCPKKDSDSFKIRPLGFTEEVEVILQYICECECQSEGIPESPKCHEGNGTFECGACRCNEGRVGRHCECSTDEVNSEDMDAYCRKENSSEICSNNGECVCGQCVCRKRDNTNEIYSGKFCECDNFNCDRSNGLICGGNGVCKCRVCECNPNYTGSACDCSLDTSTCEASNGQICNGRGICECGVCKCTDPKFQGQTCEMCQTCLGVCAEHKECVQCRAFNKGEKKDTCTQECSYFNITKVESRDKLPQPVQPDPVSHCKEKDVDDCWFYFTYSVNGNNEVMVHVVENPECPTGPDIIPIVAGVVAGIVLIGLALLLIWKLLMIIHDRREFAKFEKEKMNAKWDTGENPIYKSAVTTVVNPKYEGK

Compound | IC50 [1] | IC50 [2] | Platelet adhesion (GPVI) | activity against collagen induced aggregation [1] | inhibition of TRAP induced platelet aggregation ([2]; at 100 μM) | effect on ADP induced platelet aggregation ([3]; concentration not given) | human platelet adhesion on fibrillar collagen (GP VI mediated) (GPVI) | human platelet adhesion on soluble collagen (GP Ia IIa / α2β1 mediated) (Integrin α2β1) | IC50 ([1]; Platelet) | IC50 ([2]; Platelet) | effect on TRAP induced platelet aggregation [2] | effect on ADP induced platelet aggregation ([3]; up to 300 μM)
1-(4-methylphenylmethyl)-5-oxo-{N-[(3-t-butoxycarbonyl-aminomethyl)]-piperidin-1-yl}-pyrrolidine-2-carboxamides [Compound 1] | ~10 µM | > 100 µM | Effective |  |  |  |  |  |  |  |  | 
Cc1ccc(CN2C(=O)CC[C@H]2C(=O)N2CCCC(CNC(=O)OC(C)(C)C)C2)cc1 (some centres unmarked) [Compound 1, 1-(4-methylphenylmethyl)-5-oxo-{N-[(3-t-butoxycarbonyl-aminomethyl)]-piperidin-1-yl}-pyrrolidine-2-carboxamides] |  |  |  | active | significant inhibition | no effect | partially inhibited | partially inhibited |  |  |  | 
Cc1ccc(CN2C(=O)CC[C@H]2C(=O)N2CCC[C@@H](CNC(=O)OC(C)(C)C)C2)cc1 [Compound 6] |  |  | Effective (30 | active |  | no effect | partially inhibited | partially inhibited | ~10 µM | > 500 µM | did not exhibit any effect | did not exhibit any effect
Cc1ccc(CN2C(=O)CC[C@H]2C(=O)N2CCC[C@H](CNC(=O)OC(C)(C)C)C2)cc1 [Compound 7, (2S)-1-(4-methylphenylmethyl)-5-oxo-(3R)-{N-[(3-t-butoxycarbonyl-aminomethyl)]-piperidin-1-yl}-pyrrolidine-2-carboxamide] |  |  | Effective | active |  | no effect | partially inhibited | partially inhibited | > 10 µM | > 500 µM | did not exhibit any effect | did not exhibit any effect
